Experimental data reported in article PMC7764991, “Chronic Plasma Exposure to Kinase Inhibitors in Patients with Oncogene-Addicted Non-Small Cell Lung Cancer” (Cancers, 2020).

Columns and labels:
[1] = Residual plasma concentration of kinase inhibitors by UPLC-MS/MS in NSCLC patients, classed optimal or suboptimal
Procedure: Patients with advanced NSCLC harboring oncogenic drivers, such as an EGFR-mutation, BRAF^V600E-mutation, ALK-fusion, or ROS1-fusion, treated with KI therapy for at least three months were eligible. […] KI plasma concentrations were evaluated in blood samples collected during therapy, and at the time of clinical response or relapse. Chronic plasma exposure was defined as at least three months of KI therapy. Clinical and pathological data were extracted from electronic medical records. Radiological assessments were performed every 8 or 12 weeks per Response Evaluation Criteria in Solid Tumors (RECIST) v1.1 and per the treating physician’s discretion.
Residual plasma concentrations of drugs were measured in blood samples using ultra-performance liquid chromatography coupled with tandem mass spectrometry validated methods. A residual estimate based on pharmacokinetic and population pharmacokinetic analysis parameters (Table S2) was made for samples not collected at the time of the residual sampling.
Precise measurement of trough concentrations is challenging in routine practice, due to the constraints of the logistics of blood collection at a precise time and the fact that the timing of administration varies from patient to patient. We defined three situations according to the dosing time with respect to the last dose: Optimal, evaluable, and non-interpretable.
• Optimal: The optimal concentration corresponds to the true residual plasma concentration at a steady state, in the blood collection performed immediately before the next administration. • Evaluable: The residual plasma concentration is estimated by an extrapolation method from known pharmacokinetic parameters (distribution volume, half-life, clearance) and from data obtained in population pharmacokinetic models. This estimate of standard trough concentration (Cmin, std) is only possible when blood samples were collected at steady state or during the terminal elimination phase of the drug, since in this phase, the elimination rate is linear. • - C (min, std) = C(t) * 0.5 ^ (Delta (t)/t1/2) • - C (min, std) = C(t) * exp (k(e) x Delta (t))
• 3. Not interpretable: Extrapolation is not feasible for samples taken during the plasma peak period.

[2] = cited from earlier work; for Proposed target for TDM, Cmin: Table S1, plasma trough level, ref supplementary refs 1-11, per drug; for Target value of residual plasma concentration defining 'optimal concentration': recommended for TDM
[3] = cited from earlier work
[4] = Table S2; ref supplementary refs 9-18, per drug; cited from earlier work
[5] = studies of KI concentrations for other cancers; cited from earlier work
[6] = set-up: method as in PMID 22038662; settings: hepatocellular carcinoma patients, plasma measured every 15 days; cited from earlier work
[7] = samples after at least three months of KI, % of the optimal group (n = 25)
[8] = samples after at least three months of KI, % of the suboptimal group (n = 26)

For `C[C@@H](Oc1cc(-c2cnn(C3CCNCC3)c2)cnc1N)c1c(Cl)ccc(F)c1Cl` [Crizotinib, crizotinib], the “Samples with optimal concentration” value [1, 7] is given as 2 (8%) No. (%), the “Samples with suboptimal concentration” value [1, 8] is given as 5 (19.5%) No. (%) and the “Proposed target for TDM, Cmin” value [2] is given as no less than 235 ng/mL. The “Target value of residual plasma concentration defining 'optimal concentration'” value [2] was greater than 235 ng/mL, the “Interaction with proton pump inhibitors” value [3] was “not relevant” and the Bioavailability [4] was 43%. The Distribution volume [4] was 1772 L, the Hepatic elimination [4] was 63% and the Metabolic pathway [4] was “CYP3A4”. The Tmax [4] was 4 to 6 h.

In the case of `CC(C)(C)c1nc(-c2cccc(NS(=O)(=O)c3c(F)cccc3F)c2F)c(-c2ccnc(N)n2)s1` [Dabrafenib, dabrafenib], the “Samples with optimal concentration” value [1, 7] is given as 2 (8%) No. (%), the “Samples with suboptimal concentration” value [1, 8] is given as 3 (11.5%) No. (%) and the “Proposed target for TDM, Cmin” value [2] is given as no less than 96.1 ng/mL. For the same molecule, the “Target value of residual plasma concentration defining 'optimal concentration'” value [2] was greater than 96.1 ng/mL, the “Interaction with proton pump inhibitors” value [3] was “not relevant” and the Distribution volume [4] was 46 L. The Half-life [4] was 8 h, the Hepatic elimination [4] was 73% and the Metabolic pathway [4] was “CYP2C8, 3A4”.

For `C#Cc1cccc(Nc2ncnc3cc(OCCOC)c(OCCOC)cc23)c1` [Erlotinib, erlotinib], the “Samples with optimal concentration” value ([1]; human, in vivo) is given as 7 (28%) No. (%), the “Samples with suboptimal concentration” value ([1]; human, in vivo) is given as 6 (23%) No. (%) and the “Proposed target for TDM, Cmin” value [2] is given as no less than 500 ng/mL. For the same molecule, the “Target value of residual plasma concentration defining 'optimal concentration'” value [2] was greater than 500 ng/mL, the Suboptimal concentration rate [5] was 11% and the “Effect of cigarette smoke on plasmatic exposure” value ([3]; cigarette smoke induces CYP1A1) was “significantly decreases”. The “Interaction with proton pump inhibitors” value [3] was “decreasing their bioavailability and the plasmatic exposure”, the Bioavailability [4] was 59% and the Distribution volume [4] was 232 L. For the same molecule, the Half-life [4] was 36.2 h and the Hepatic elimination [4] was 90%.

For `COc1cc2ncnc(Nc3ccc(F)c(Cl)c3)c2cc1OCCCN1CCOCC1` [Gefitinib, gefitinib], the “Samples with optimal concentration” value ([1]; human, in vivo) is listed as 8 (32%) No. (%), the “Samples with suboptimal concentration” value ([1]; human, in vivo) is listed as 3 (11.5%) No. (%) and the “Proposed target for TDM, Cmin” value [2] is listed as no less than 200 ng/mL. For the same molecule, the “Target value of residual plasma concentration defining 'optimal concentration'” value [2] was greater than 200 ng/mL, the Bioavailability [4] was 59% and the Half-life [4] was 41 h. For the same molecule, the Tmax [4] was 3 to 7 h.

In the case of `C=CC(=O)Nc1cc(Nc2nccc(-c3cn(C)c4ccccc34)n2)c(OC)cc1N(C)CCN(C)C` [Osimertinib, osimertinib], the “Samples with optimal concentration” value ([1]; human, in vivo) is listed as 4 (16%) No. (%), the “Samples with suboptimal concentration” value ([1]; human, in vivo) is listed as 6 (23%) No. (%) and the “Proposed target for TDM, Cmin” value [2] is listed as no less than 166 ng/mL. The “Target value of residual plasma concentration defining 'optimal concentration'” value [2] was greater than 166 ng/mL, the Bioavailability [4] was 70% and the Half-life [4] was 44 h. The Tmax [4] was 6 h.

For `CC(=O)Nc1cccc(-n2c(=O)n(C3CC3)c(=O)c3c(Nc4ccc(I)cc4F)n(C)c(=O)c(C)c32)c1` [Trametinib, trametinib], the “Samples with optimal concentration” value ([1]; human, in vivo) is given as 2 (8%) No. (%), the “Samples with suboptimal concentration” value ([1]; human, in vivo) is given as 3 (11.5%) No. (%) and the “Proposed target for TDM, Cmin” value [2] is given as no less than 10.6 ng/mL. The “Target value of residual plasma concentration defining 'optimal concentration'” value [2] was greater than 10.6 ng/mL, the “Interaction with proton pump inhibitors” value [3] was “not relevant” and the Half-life [4] was 127 h. The Hepatic elimination [4] was 80% and the Metabolic pathway [4] was “Deacetylation”.

For `CNC(=O)c1cc(Oc2ccc(NC(=O)Nc3ccc(Cl)c(C(F)(F)F)c3)cc2)ccn1` [sorafenib], the “Exposure after three months of treatment compared with one month” value [6] is listed as “lower than after one month of treatment”.

For `CCN(CC)CCNC(=O)c1c(C)[nH]c(/C=C2\C(=O)Nc3ccc(F)cc32)c1C` [sunitinib], the Suboptimal concentration rate [5] is given as 49%.
